# Results reported in CN117003659A, “一种可离子化脂质或其药学上可接受的盐、组合物和应用” (priority 2023, dated 2023).
# What was measured:
# [1] = system: human umbilical vein endothelial cells (人脐静脉内皮细胞, HUVEC); assay: In vitro expression of VEGFa mRNA-LNP, ELISA of VEGFa protein (Example 6); type: cell-based; details: mRNA 1 μg, 24 h
# [2] = system: HEK293T cells (HEK293T细胞); type: cell-based; details: RBD mRNA-LNP, mRNA 1 μg, 24 h, cell supernatant
# [3] = system: female BALB/C mice (雌性BALB/C小鼠); assay: In vivo expression of Fluc mRNA-LNP, live fluorescence imaging (Example 7); set-up: species or system mouse; details: for fluorescence intensity (total luminous flux) / course of fluorescence intensity at 24 h (in words): mice, 20 μg Fluc mRNA, intramuscular; for fluorescence intensity (total luminous flux): 6 h, order of magnitude; for fluorescence intensity of expressed protein compared with U-102, U-104, U-106, U-108, U-110, U-112 (in words): mRNA-LNP, versus U-102, U-104, U-106, U-108, U-110, U-112
SMILES,VEGFa protein concentration [1],RBD protein concentration [2],fluorescence intensity (total luminous flux) [3],course of fluorescence intensity at 24 h (in words) [3],"fluorescence intensity of expressed protein compared with U-102, U-104, U-106, U-108, U-110, U-112 (in words) [3]"
"CCCCCCCCC(CCCCCC)C(=O)OCCCCCCN(CCCCO)CCCCCCOC(=O)C(CCCCCC)CCCCCCCC (stereo not shown) [ALC-0315, ((4-羟基丁基)氮杂二基)双(己烷-6,1-二基)双(2-己基癸酸酯), reference compound]",7.9 ng/mL,8.5 ng/mL,~10^7 p/s,开始减弱,–
"CCCCCCCCCCCOC(=O)CCCCCN(CCO)CCCCCCCC(=O)OC(CCCCCCCC)CCCCCCCC [SM-102, 8-[(2-羟乙基)[6-氧代-6-(十一烷基氧基)己基]氨基]辛酸1-辛基壬基酯, reference compound]",11.3 ng/mL,10.2 ng/mL,~10^7 p/s,开始减弱,–
"CCCCCCCCC(CCCCCC)COC(=O)CCCCCN(CCCCCC(=O)OCC(CCCCCC)CCCCCCCC)CCCN(CCO)CCO (stereo not shown) [U-101, 双(2-己基癸基)-6,6'-((3-(双(2-羟乙基)氨基)丙基)氮杂二烷基)二己酸酯]",52.8 ng/mL,50.6 ng/mL,–,–,更高一些
"CCCCCCCCC(CCCCCC)COC(=O)CCCCCCN(CCCCCCC(=O)OCC(CCCCCC)CCCCCCCC)CCN(CCO)CCO (stereo not shown) [U-102, 双(2-己基癸基)-7,7'-((2-(双(2-羟乙基)氨基)乙基)氮杂二烷基)二庚酸酯]",48.7 ng/mL,49.3 ng/mL,–,–,–
"CCCCCCCCCCCCOC(=O)CCCCCN(CCCCCC(=O)OCC(CCCCCC)CCCCCCCC)CCCN(CCO)CCO (stereo not shown) [U-103, O-2-己基癸基-O’-十二烷基-6,6'-((3-(双(2-羟乙基)氨基)丙基)氮杂二烷基)二己酸酯]",49.6 ng/mL,49.6 ng/mL,–,–,更高一些
"CCCCCCCCCCCCOC(=O)CCCCCCN(CCCCCCC(=O)OCC(CCCCCC)CCCCCCCC)CCN(CCO)CCO (stereo not shown) [U-104, O-2-己基癸基-O’-十二烷基-6,6'-((2-(双(2-羟乙基)氨基)乙基)氮杂二烷基)二庚酸酯]",47.9 ng/mL,48.7 ng/mL,–,–,–
"CCCCCCCCC(CCCCCCCC)OC(=O)CCCCCN(CCCCCC(=O)OC(CCCCCCCC)CCCCCCCC)CCCN(CCO)CCO [U-105, 双(1-辛基壬基)-6,6'-((3-(双(2-羟乙基)氨基)丙基)氮杂二烷基)二己酸酯]",48.3 ng/mL,48.4 ng/mL,–,–,更高一些
"CCCCCCCCC(CCCCCCCC)OC(=O)CCCCCCN(CCCCCCC(=O)OC(CCCCCCCC)CCCCCCCC)CCN(CCO)CCO [U-106, 双(1-辛基壬基)-7,7'-((2-(双(2-羟乙基)氨基)乙基)氮杂二烷基)二庚酸酯]",45.5 ng/mL,47.8 ng/mL,–,–,–
"CCCCCCCCCCCCOC(=O)CCCCCN(CCCCCC(=O)OC(CCCCCCCC)CCCCCCCC)CCCN(CCO)CCO [U-107, O-1-辛基壬基-O’-十二烷基-6,6'-((3-(双(2-羟乙基)氨基)丙基)氮杂二烷基)二己酸酯]",47.7 ng/mL,47.6 ng/mL,–,–,更高一些
"CCCCCCCCCCCCOC(=O)CCCCCCN(CCCCCCC(=O)OC(CCCCCCCC)CCCCCCCC)CCN(CCO)CCO [U-108, O-1-辛基壬基-O’-十二烷基-7,7'-((2-(双(2-羟乙基)氨基)乙基)氮杂二烷基)二庚酸酯]",45.3 ng/mL,45.7 ng/mL,–,–,–
"CCCCCCCC(CCCCCCC)OC(=O)CCCCCN(CCCCCC(=O)OC(CCCCCCC)CCCCCCC)CCCN(CCO)CCO [U-109, 双(1-庚基辛基)-6,6'-((3-(双(2-羟乙基)氨基)丙基)氮杂二烷基)二己酸酯]",39.2 ng/mL,43.2 ng/mL,–,–,更高一些
"CCCCCCCC(CCCCCCC)OC(=O)CCCCCCN(CCCCCCC(=O)OC(CCCCCCC)CCCCCCC)CCN(CCO)CCO [U-110, 双(1-庚基辛基)-7,7'-((2-(双(2-羟乙基)氨基)乙基)氮杂二烷基)二庚酸酯]",36.8 ng/mL,41.6 ng/mL,–,–,–
"CCCCCCCCCCCCOC(=O)CCCCCN(CCCCCC(=O)OC(CCCCCCC)CCCCCCC)CCCN(CCO)CCO [U-111, O-1-庚基辛基-O’-十二烷基-6,6'-((3-(双(2-羟乙基)氨基)丙基)氮杂二烷基)二己酸酯]",41.7 ng/mL,44.3 ng/mL,–,–,更高一些
"CCCCCCCCCCCCOC(=O)CCCCCCN(CCCCCCC(=O)OC(CCCCCCC)CCCCCCC)CCN(CCO)CCO [U-112, O-1-庚基辛基-O’-十二烷基-7,7'-((2-(双(2-羟乙基)氨基)乙基)氮杂二烷基)二庚酸酯]",36.1 ng/mL,42.8 ng/mL,–,–,–
"CCCCCCCCC(CCCCCC)COC(=O)CCCCCN(CCCCCC(=O)OCC(CCCCCC)CCCCCCCC)CCN(CCO)CCO (stereo not shown) [UR-301, 双(2-己基癸基)-6,6'-((2-(双(2-羟乙基)氨基)乙基)氮杂二烷基)二己酸酯]",4.8 ng/mL,6.8 ng/mL,–,–,–
"CCCCCCCCC(CCCCCC)COC(=O)CCCCCCN(CCCCCCC(=O)OCC(CCCCCC)CCCCCCCC)CCCN(CCO)CCO (stereo not shown) [UR-302, 双(2-己基癸基)-7,7'-((3-(双(2-羟乙基)氨基)丙基)氮杂二烷基)二庚酸酯]",3.7 ng/mL,4.5 ng/mL,–,–,–
"CCCCCCCCC(CCCCCC)COC(=O)CCCCCCCN(CCCCCCCC(=O)OCC(CCCCCC)CCCCCCCC)CCN(CCO)CCO (stereo not shown) [UR-303, 双(2-己基癸基)-8,8'-((2-(双(2-羟乙基)氨基)乙基)氮杂二烷基)二辛酸酯]",6.2 ng/mL,6.4 ng/mL,–,–,–
"CCCCCCCCC(CCCCCC)COC(=O)CCCCN(CCCCC(=O)OCC(CCCCCC)CCCCCCCC)CCCN(CCO)CCO (stereo not shown) [UR-304, 双(2-己基癸基)-5,5'-((3-(双(2-羟乙基)氨基)丙基)氮杂二烷基)二戊酸酯]",4.9 ng/mL,5.4 ng/mL,–,–,–
